Data reported in US20060063785A1, “Substituted pyrazolo[1,5-a] pyrimidines and process for making same” (priority 2004, published 2006).
Where two headings read alike, the source gives them in different places.

Legend:
LoVo Colon cell line = test: Cytotoxicity assay using LoVo colon cell line (SRB, IC50); type: cell-based; conditions: read-out: Inhibition of LoVo
Experimental: Cytotoxicity Assay Using LoVo Colon Cell Line: • 1. LoVo Colon cell lines was cultured in RPMI 1640 medium (Gibco/Invitrogen Life Sciences) supplemented with 10% fetal bovine serum (FBS, Gibco) and 50 μg/ml gentamicin (Gibco). Cells were maintained at 37° C. under 7% CO2. • 2. Cells were seeded in 96-well microtiter plates (Corning/Costar) in a volume of 0.15 ml of growth medium (4000 cells/well). Plates were incubated at 37° C. overnight (18-24 hours). • 3. Serial dilutions of the test agent were added to each well. Dilutions were prepared in growth medium. One of two dose ranges was used: 5 pM to 20 μM or […] to 10 μg/ml. Cells were incubated with the test compounds for 4 days at 37° C. • 4. Surviving cells were processed using the SRB asay, as described above.
5. The drug concentration that inhibits cell proliferation by 50% relative to untreated controls (IC50) was determined from cytotoxicity curves using the LSW Toolbox graphing application.

[1] = tested on: 80S14 (p21-deficient) cells; test: Determination of selectivity of compounds for p21-/- cells: IC50 in 80S14 cells (SRB); type: cell-based, human
Experimental: • 1. 80S14 (p21-deficient) cells were cultured in RPMI 1640 medium (Gibco/Invitrogen Life technologies) supplemented with 10% fetal bovine serum (FBS, Gibco) and 10 μg/ml gentamycin (Gibco). Cells were maintained at 37° C. under 7% CO2. • 2. Cells were plated at 6×10^4/ml (0.2 ml/well; 12,000 cells/well) in 96-well microtiter plates (Falcon or Corning/Costar) and incubated at 37° C. overnight (18-24 hours). • 3. 2-5 μl of the test agent-[200 μg/ml stock in 20% DMSO/20 mM HEPES, pH 7.5 (Gibco)] was added to each well to achieve a final concentration of 2-5 μg/ml. Cells were incubated with the test compounds for 5 days at 37° C. • 4. Surviving cells were fixed with 50 μl 50% trichloroacetic acid (Sigma; 10% final concentration) for 1 hour at 4° C. • 5. Plates were rinsed twice with water (0.3 ml per wash using MRD8 robot), and allowed to dry. • 6. Sulforhodamine B (SRB) (Sigma; 0.4% in 1% acetic acid, 50 μl per well; MRD8 robot) was added and plates kept at room temperature for 10 minutes. • 7. Excess dye was removed by washing with 1% acetic acid (3 times, 0.3 ml per wash; MRD8 robot) and allowed to dry. • 8. The dye was solubilized in Tris base (Sigma; 10 mM, 150 μl per well). Plates were kept at room temperature for 30 minutes to allow the dye to diffuse. • 9. Absorbance was measured at 540 nm. • 10. The percentage of cells surviving drug treatment relative to control wells (no drug) was determined. • 11. The difference in % cell survival between the two cell lines was calculated. • 12. Compounds producing a difference score of >50 were considered to be selective for the p21-deficient cells and were evaluated further. Determination of Selectivity of Compounds for p21−/− Cells: • 1. 80S14 cells were cultured as described above. • 2. Cells were seeded in 96-well microtiter plates at 12,000 cells/well (either 0.15 ml/well of 8×10^4 cells/ml suspension, or 0.2 ml/well of 6×10^4 cells/ml suspension). Plates were incubated at 37° C. overnight (18-24 hours). • 3. Serial dilutions of the test agent were added to each well. Dilutions were prepared either in 40% DMSO/20% methanol/20 mM HEPES, pH 7.5 (Gibco) or directly in growth medium. One of two dose ranges were used: 5 pM to 50 μM or 170 pg/ml to 10 μg/ml. Cells were incubated with the test compounds for 5 days at 37° C. • 4. Surviving cells were fixed with 50 μl 50% trichloroacetic acid (Sigma; 10% final concentration) for 1 hour at 4° C. • 5. Plates were rinsed extensively in water, and allowed to dry. • 6. Sulforhodamine B (Sigma; 0.4% in 1% acetic acid, 70 μl per well) was added and plates kept at room temperature for 10 minutes. • 7. Excess dye was removed by washing 5 times with 1% acetic acid and plates were allowed to dry. • 8. The dye was solubilized in Tris base (Sigma; 10 mM, 150 μl per well). Plates were placed on a titer plate shaker (Lab Line Instruments) for 5 minutes to allow the dye to diffuse. • 9. Absorbance was measured at 560 nm.
10. The drug concentration which inhibits cell proliferation by 50% relative to untreated controls (IC50) was determined from cytotoxicity curves.

[2] = Cellular activity in LoVo cell, 4 days incubation, SRB assay
[3] = Cellular activity in 80S14 (p21-deficient) cells, SRB, class symbols, read-out: IC50 for 80S14
[4] = Homo sapiens, 80S14, 120 h, read-out: IC50 for 80S14 (μM)
[5] = LoVo colon cells, 4 days at 37° C., SRB
[6] = 80S14 (p21-deficient) cells, 5 days at 37° C., SRB, read-out: IC50 for 80S14
[7] = Homo sapiens, 120 h, 80S14 (p21-deficient) cells, 5 days at 37° C., SRB, read-out: IC50 for 80S14
[8] = Homo sapiens, 96 h, LoVo colon cells, 4 days at 37° C., SRB
[9] = Homo sapiens, Cellular activity in 80S14 (p21-deficient) cells, SRB, class symbols, read-out: IC50 for 80S14

3-(3,5-Dimethylphenyl)-7-[3-(2-ethyl-2H-tetrazol-5-yl)phenyllpyrazolo[1,5-a]pyrimidine [Example 384]
IC50 (LoVo Colon cell line; [2]): 100 to 1000 nM
IC50 [1, 3]: 1 to 10 µM

3-Methyl-N-{^5-[3-(thien-2-ylcarbonyl)pyrazolo[1,5-a]pyrimidin-7-yl]thien-2-yl}butanamide [Example 240]
IC50 (LoVo Colon cell line; [2]): 1000 to 20000 nM
IC50 [1, 3]: 1 to 10 µM

7-{3-[2-(Cyclobutylmethyl)-2H-tetraazol-5-yl]phenyl}-3-(3,5-dimethylphenyl)pyrazolo[1,5-a]pyrimidine [Example 381]
IC50 (LoVo Colon cell line; [2]): 100 to 1000 nM
IC50 [1, 3]: 1 to 10 µM

C#CCOC(=O)Nc1cccc(-c2ccnc3c(C(=O)c4cccs4)cnn23)c1 [Example 13, prop-2-ynyl 3-[3-(thien-2-ylcarbonyl)pyrazolo[1,5-a]pyrimidin-7-yl]phenylcarbamate]
IC50 (LoVo Colon cell line; Homo sapiens, LoVo, 96 h): 100 to 1000 nM
IC50 [1, 4]: < 1 µM

O=C(Nc1cccc(-c2ccnc3c(C(=O)c4cccs4)cnn23)c1)OCCCl [Example 16, 2-chloroethyl 3-[3-(thien-2-ylcarbonyl)pyrazolo[1,5-a]pyrimidin-7-yl]phenylcarbamate]
IC50 (LoVo Colon cell line; Homo sapiens, LoVo, 96 h): < 100 nM
IC50 [1, 4]: < 1 µM

C=C(C)C(=O)Nc1cccc(-c2ccnc3c(C(=O)c4cccs4)cnn23)c1 [Example 36, 2-methyl-N-{3-[3-(thien-2-ylcarbonyl)pyrazolo[1,5-a]pyrimidin-7-yl]phenyl} acrylamide]
IC50 (LoVo Colon cell line; [5]): < 100 nM
IC50 [1, 6]: < 1 µM

CCCC(Cl)CC(=O)Nc1cccc(-c2ccnc3c(C(=O)c4cccs4)cnn23)c1 (centres unmarked) [Example 121, 3-chloro-N-{3-[3-(thien-2-ylcarbonyl)pyrazolo[1,5-a]pyrimidin-7-yl]phenyl}hexanamide]
IC50 [1, 7]: < 1 µM

CCCCCCCCCCC(=O)Nc1cccc(-c2ccnc3c(C(=O)c4cccs4)cnn23)c1 [Example 124, N-{3-[3-(thien-2-ylcarbonyl.)pyrazolo[1,5-a]pyrimidin-7-yl]phenyl}undecanamide]
IC50 [1, 6]: 10 to 50 µM

C/C=C/C(=O)Nc1cccc(-c2ccnc3c(C(=O)c4cccs4)cnn23)c1 [Example 129, (2E)-N-{3-[3-(thien-2-ylcarbonyl)pyrazolo[1,5-a]pyrimidin-7-yl]phenyl}but-2-enamide]
IC50 [1, 7]: 1 to 10 µM

O=C(c1cccs1)c1cnn2c(-c3cccc(NC(=O)N4CCOCC4)c3)ccnc12 [Example 131, N-{3-[3-(thien-2-ylcarbonyl)pyrazolo[1,5-a]pyrimidin-7-yl]phenyl}morpholine-4-carboxamide]
IC50 (LoVo Colon cell line; [8]): 100 to 1000 nM
IC50 [1, 7]: 1 to 10 µM

CN(C)CCNC(=O)Nc1cccc(-c2ccnc3c(C(=O)c4cccs4)cnn23)c1 [Example 134, N-[2-(dimethylamino)ethyl]-N′-{3-[3-(thien-2-ylcarbonyl)pyrazolo[1,5-a]pyrimidin-7-yl]phenyl}urea]
IC50 [1, 7]: 10 to 50 µM

CCCCCNC(=O)Nc1cccc(-c2ccnc3c(C(=O)c4cccs4)cnn23)c1 [Example 138, N-pentyl-N′-{3-[3-(thien-2-ylcarbonyl)pyrazolo[1,5-a]pyrimidin-7-yl]phenyl}urea]
IC50 (LoVo Colon cell line; [8]): < 100 nM

COCCN(CCOC)C(=O)Nc1cccc(-c2ccnc3c(C(=O)c4cccs4)cnn23)c1 [Example 141, N,N-bis(2-methoxyethyl)-N′-{3-[3-(thien-2-ylcarbonyl)pyrazolo[1,5-a]pyrimidin-7-yl]phenyl}urea]
IC50 (LoVo Colon cell line; [8]): 1000 to 20000 nM

O=C(Nc1cccc(-c2ccnc3c(C(=O)c4cccs4)cnn23)c1)OCC1CCCCC1 [Example 148, Cyclohexylmethyl 3-[3-(thien-2-ylcarbonyl)pyrazolo[1,5-a]pyrimidin-7-yl]phenylcarbarmate]
IC50 (LoVo Colon cell line; [5]): < 100 nM
IC50 [1, 6]: < 1 µM

Cc1cc(-c2cccc(NC(=O)C3CO3)c2)n2ncc(C(=O)c3cccs3)c2n1 (centres unmarked) [Example 191, {3-[5-Methyl-3-(2-thienylcarbonyl)pyrazolo[1,5-a]pyrimidin-7-yl]phenyl}-2-oxiranecarboxamide]
IC50 [1, 3]: < 1 µM

CC(C)COC(=O)Nc1cccc(-c2ccnc3c(Br)cnn23)c1 [Example 225, Isobutyl 3-(3-bromopyrazolo[1,5-a]pyrimidin-7-vl)phenvlcarbamate]
IC50 [1, 3]: 10 to 50 µM

CC(C)NC(=S)Nc1ccc(Cl)c(-c2ccnc3c(C(=O)c4cccs4)cnn23)c1 [Example 237, N-{4-Chloro-3-[3-(thien-2-ylcarbonyl)pyrazolo[1,5-a]pyrimidin-7-yl]phenyl}-N′-isopropylthiourea]
IC50 (LoVo Colon cell line; Homo sapiens, 96 h, Cellular activity in LoVo cell, 4 days incubation, SRB assay): 100 to 1000 nM
IC50 [1, 9]: 1 to 10 µM

O=C(Nc1cccc(-c2ccnc3c(C(=O)c4cccs4)cnn23)c1)NC1CCCCC1 [Example 249, N-Cyclohexyl-N′-{3-[3-(thien-2-ylcarbonyl)pyrazolo[1,5-a]pyrimidin-7-yl]phenyl}urea]
IC50 [1, 9]: < 1 µM

CN1CCC(C(=O)Nc2cccc(-c3ccnc4c(C(=O)c5cccs5)cnn34)c2)CC1 [Example 307, 1-Methyl-N-{3-[3-(thien-2-ylcarbonyl)pyrazolo[1,5-a]pyrimidin-7-yl]phenyl}piperidine-4-carboxamide]
IC50 [1, 9]: 10 to 50 µM

CC(CCNc1cccc(-c2ccnc3c(C(=O)c4cccs4)cnn23)c1)CC(C)(C)C (centres unmarked) [Example 321, Thien-2-yl(7-{3-[(3,5,5-trimethylhexyl]amino]phenyl}pyrazolo[1,5-a]pyrimidin-3-yl](thien-2-yl)methanone]
IC50 (LoVo Colon cell line; [2]): 100 to 1000 nM
IC50 [1, 3]: 1 to 10 µM

O=C(c1cccs1)c1cnn2c(-c3cccc(NCC4CC=CCC4)c3)ccnc12 (centres unmarked) [Example 324, (7-{3-[(cyclohex-3-en-1-ylmethyl)emnino]phenyl}pyrazolo[1,5-a]pyrimidin-3-yl)-(thien-2-yl)-methanone]
IC50 (LoVo Colon cell line; [2]): < 100 nM
IC50 [1, 3]: < 1 µM

O=C(CCc1cccnc1)Nc1cccc(-c2ccnc3c(C(=O)c4cccs4)cnn23)c1 [Example 336, 3-Pyridin-3-yl-N-{3-[3-(thien-2-ylcarbonyl)pyrazolo [1,5-a]pyrimidin-7-yl]phenyl}propanamide]
IC50 [1, 9]: 1 to 10 µM

(7-{3-[1-(Cyclobutylmethyl)-1H-pyrazol-3-yl]phenyl}pyrazolo[1,5-a]pyrimidin-3-yl)(thien-2-yl)methanone [Example 404]
IC50 (LoVo Colon cell line; [2]): < 100 nM
IC50 [1, 3]: < 1 µM

N,N′-Diethyl-3-[3-(2-thienylcarbonyl)-pyrazolo[1,5-a]pyrimidin-7-yl]-benzamide [Example 181]
IC50 [1, 3]: 10 to 50 µM

N-{3-[3-(2-Thienylcarbonyl)pyrazolo[1,5-a]pyrimidin-7-yl]phenyl}-3-trifluoromethyl)benzamide [Example 193]
IC50 [1, 3]: < 1 µM

tert-Butyl 4-[({3-[3-[3-(thien-2-ylcarbonyl)pyrazolo[1,5-a]pyrimidin-7-yl]phenyl}amino)carbonyl]piperidine-1-carboxylate [Example 295]
IC50 [1, 3]: 1 to 10 µM
